Experimental data published in patent publication US20080004290A1, “Anti-Cancer Agents” (THE UNIVERSITY OF QUEENSLAND, priority 2003, published 2008).
Read-outs that look alike come from different tables or passages of the source.

Experiments:
Assay type in all cases: cell-based, human
[1] = system: CI-80-13S ovarian cancer cells; experiment: Cell survival assay (SRB); settings: for IC50: read-out: Cytoselectivities (nM) CI80-13S; for Selectivity Index CI80-13S: Table 13, S enantiomer, IC50(NFF)/IC50(cancer cell line)
Procedure: (§1) Cell Lines and Culture Medium. All cell lines used in this study have been described previously (Parsons et al., 1986; Todaro et al., 1980; Glenn et al., 2004). All cell lines were cultured in 10% heat-inactivated foetal calf serum (CSL, Australia) in RPMI 1640 medium supplemented with 100 U/mL penicillin, 100 μg/mL streptomycin, and 3 mM HEPES at 5% CO2, 99% humidity at 37° C. Primary human fibroblasts were obtained from neonatal foreskins and cultured in the above medium. Routine mycoplasma tests were performed using Hoechst stain^i and were always negative.
(§2) Cell Survival Assay. Cells were plated into 96-well microtitre plates at 5×10^3 cells/well, and allowed to adhere overnight. Test compounds were added to culture medium at the indicated concentrations, and plates incubated in the above conditions for 24 hours. Following this incubation period, compounds and media were removed, and replaced with fresh culture medium. Cells were then grown for a further 72 hours before assay using sulforhodamine B (SRB; Sigma, St. Louis, Mo.) as previously described. Briefly, the culture medium was removed from the 96-well microtitre plates and the plates washed twice with phosphate buffered saline (PBS), before the cells were fixed with methylated spirits for 15 minutes. The plates were then rinsed with tap water and the fixed cells stained with 50 μL/well of SRB solution (0.4% sulforhodamine B (w/v) in 1% (v/v) acetic acid) over a period of 1 hour. The SRB solution was then removed from the wells and the plates rapidly washed two times with 1% (v/v) acetic acid. Protein bound dye was then solubilised with the addition of 100 μL of 10 mM unbuffered Tris, and incubated for 15 min at 25° C. Plates were then read at 564 nm on a VERSA max tunable microplate reader (Molecular Devices, Sunnyvale, Calif.).
(§3) For comparison their results are also shown for MM96L and NFF cell lines.

[2] = system: MCF-7 breast cancer cells; experiment: Cell survival assay (SRB); settings: for IC50: MCF-7 (breast), read-out: Cytoselectivities (nM) MCF-7; for Selectivity Index MCF-7: Table 13, S enantiomer, IC50(NFF)/IC50(cancer cell line)
Procedure: as §1, §2, §3

JAM ovarian cancer cells = experiment: Cell survival assay (SRB); settings: for IC50: read-out: Cytoselectivities (nM) JAM; for Selectivity Index JAM: Table 13, S enantiomer, IC50(NFF)/IC50(cancer cell line)
Procedure: as §1, §2, §3

[3] = system: DU145 prostate cancer cells; experiment: Cell survival assay (SRB); settings: for IC50: DU145 (prostate), read-out: Cytoselectivities (nM) DU145; for Selectivity Index DU145: Table 13, S enantiomer, IC50(NFF)/IC50(cancer cell line)
Procedure: as §1, §2, §3

SkMel28 melanoma cells = experiment: Cell survival assay (SRB); settings: for IC50: SK-MEL-28 (melanoma), read-out: Cytoselectivities (nM) SK-MEL-28; for Selectivity Index SK-MEL-28: Table 13, S enantiomer, IC50(NFF)/IC50(cancer cell line)
Procedure: as §1, §2, §3

SK-MEL-5 cells = experiment: Cell survival assay (SRB); settings: for IC50: SK-MEL-5, read-out: Cytoselectivities (nM) SK-MEL-5; for Selectivity Index SK-MEL-5: Table 13, S enantiomer, IC50(NFF)/IC50(cancer cell line)
Procedure: as §1, §2

HT29 cells = experiment: Cell survival assay (SRB); settings: for IC50: HT29 (colon), read-out: Cytoselectivities (nM) HT29; for Selectivity Index HT29: Table 13, S enantiomer, IC50(NFF)/IC50(cancer cell line)
Procedure: as §1, §2

HOP62 cells = experiment: Cell survival assay (SRB); settings: for IC50: HOP62 (lung), read-out: Cytoselectivities (nM) HOP62; for Selectivity Index HOP62: Table 13, S enantiomer, IC50(NFF)/IC50(cancer cell line)
Procedure: as §1, §2

PC-3 cells = experiment: Cell survival assay (SRB); settings: for IC50: PC-3, read-out: Cytoselectivities (nM) PC-3; for Selectivity Index PC-3: Table 13, S enantiomer, IC50(NFF)/IC50(cancer cell line)
Procedure: as §1, §2

H520 cells = experiment: Cell survival assay (SRB); settings: for IC50: read-out: Cytoselectivities (nM) H520; for Selectivity Index H520: Table 13, S enantiomer, IC50(NFF)/IC50(cancer cell line)
Procedure: as §1, §2

A549 cells = experiment: Cell survival assay (SRB); settings: for IC50: A549 (lung), read-out: Cytoselectivities (nM) A549; for Selectivity Index A549: Table 13, S enantiomer, IC50(NFF)/IC50(cancer cell line)
Procedure: as §1, §2

T-47D cells = experiment: Cell survival assay (SRB); settings: for IC50: read-out: Cytoselectivities (nM) T-47D; for Selectivity Index T-47D: Table 13, S enantiomer, IC50(NFF)/IC50(cancer cell line)
Procedure: as §1, §2

MM96L melanoma cells = experiment: Cell survival assay (clonogenic survival, SRB); settings: for IC50: MM96L; for SI (Selectivity Index = IC50 (NFF)/IC50 (MM96L)): NFF vs MM96L; for Selectivity Index MM96L: Table 13, S enantiomer, IC50(NFF)/IC50(cancer cell line)
Summary of the method: (§4)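 Cells (5×10^3/well, RPMI 1640 with 10% FCS) treated 24 h with compound at 0.01-10 μg/mL, then washed and grown 72 h drug-free at 37 °C, 5% CO2. Survival read by SRB staining after methylated-spirit fixation, absorbance 564 nm.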

Col208 cells = experiment: Cell survival assay (SRB); settings: for IC50: Homo sapiens, Col208 (colon), read-out: Cytoselectivities (nM) Col208; for Selectivity Index Col208: Table 13, S enantiomer, IC50(NFF)/IC50(cancer cell line)
Procedure: as §1, §2

[4] = system: NFF, neonatal foreskin fibroblasts; experiment: Cell survival assay (clonogenic survival, SRB), normal cells; settings: Homo sapiens, Fibroblast, NFF normal fibroblasts; 24 h with compound, further 72 h growth, SRB; read-out: IC50 (uM) NFF
Summary of the method: as §4

[5] = Table 12, read-out: Cytoselectivities (nM) MM96L
[6] = Homo sapiens, MM96L melanoma, 24 h with compound, further 72 h growth, SRB, read-out: IC50 (uM) MM96L
[7] = Homo sapiens, Table 12, read-out: Cytoselectivities (nM) MM96L
[8] = Homo sapiens, most preferred compounds, exemplary examples, read-out: potency of IC50 against the MM96 melanoma cells

## CN(C)c1ccc(C(=O)N[C@H](CCCCCC(=O)NO)C(=O)Nc2cccc3cccnc23)cc1 [126 R]
[1]; CI80-13S
  IC50: 43 nM
[2]
  IC50: 40 nM
JAM ovarian cancer cells; JAM
  IC50: 251 nM
[3]
  IC50: 52 nM
SkMel28 melanoma cells
  IC50: 57 nM
SK-MEL-5 cells
  IC50: 44 nM
HT29 cells
  IC50: 199 nM
HOP62 cells
  IC50: 147 nM
PC-3 cells
  IC50: 387 nM
H520 cells; H520
  IC50: 188 nM
A549 cells
  IC50: 191 nM
T-47D cells; T-47D
  IC50: 63 nM
MM96L melanoma cells; [5]
  IC50: 38 nM

## O=C(CCCCC[C@@H](NC(=O)c1cc2ccccc2[nH]1)C(=O)Nc1cccc2cccnc12)NO [132 R]
[1]; CI80-13S
  IC50: 27 nM
[2]
  IC50: 42 nM
JAM ovarian cancer cells; JAM
  IC50: 211 nM
[3]
  IC50: 33 nM
SkMel28 melanoma cells
  IC50: 43 nM
SK-MEL-5 cells
  IC50: 23 nM
HT29 cells
  IC50: 238 nM
HOP62 cells
  IC50: 63 nM
PC-3 cells
  IC50: 148 nM
H520 cells; H520
  IC50: 180 nM
A549 cells
  IC50: 121 nM
T-47D cells; T-47D
  IC50: 42 nM
MM96L melanoma cells; [5]
  IC50: 18 nM

## O=C(/C=C/c1ccccc1)N[C@H](CCCCCC(=O)NO)C(=O)Nc1cccc2cccnc12 [146 R]
[1]; CI80-13S
  IC50: 91 nM
[2]
  IC50: 51 nM
JAM ovarian cancer cells; JAM
  IC50: 163 nM
[3]
  IC50: 63 nM
SkMel28 melanoma cells
  IC50: 87 nM
SK-MEL-5 cells
  IC50: 66 nM
HT29 cells
  IC50: 272 nM
HOP62 cells
  IC50: 133 nM
PC-3 cells
  IC50: 543 nM
H520 cells; H520
  IC50: 152 nM
A549 cells
  IC50: 196 nM
T-47D cells; T-47D
  IC50: 99 nM
MM96L melanoma cells; [5]
  IC50: 45 nM

## O=C(CCCCC[C@@H](NC(=O)OCc1ccccc1)C(=O)Nc1cccc2cccnc12)NO [148 R]
[1]; CI80-13S
  IC50: 29 nM
[2]
  IC50: 29 nM
JAM ovarian cancer cells; JAM
  IC50: 65 nM
[3]
  IC50: 39 nM
SkMel28 melanoma cells
  IC50: 43 nM
SK-MEL-5 cells
  IC50: 20 nM
HT29 cells
  IC50: 139 nM
HOP62 cells
  IC50: 65 nM
PC-3 cells
  IC50: 269 nM
H520 cells; H520
  IC50: 46 nM
A549 cells
  IC50: 104 nM
T-47D cells; T-47D
  IC50: 51 nM
MM96L melanoma cells; [5]
  IC50: 22 nM

## O=C(CCCCC[C@@H](NC(=O)c1ccc(Br)cc1)C(=O)Nc1ccc(-c2ccccc2)cc1)NO [161 R]
[1]; CI80-13S
  IC50: 18600 nM
[2]
  IC50: 13000 nM
JAM ovarian cancer cells; JAM
  IC50: 18600 nM
[3]
  IC50: 18600 nM
SkMel28 melanoma cells
  IC50: 18600 nM
SK-MEL-5 cells
  IC50: 18600 nM
HT29 cells
  IC50: 18600 nM
HOP62 cells
  IC50: 18600 nM
PC-3 cells
  IC50: 18600 nM
H520 cells; H520
  IC50: 18600 nM
A549 cells
  IC50: 18600 nM
T-47D cells; T-47D
  IC50: 18600 nM
MM96L melanoma cells; [5]
  IC50: 18600 nM

## CN(C)c1ccc(C(=O)N[C@@H](CCCCCC(=O)NO)C(=O)Nc2cccc3cccnc23)cc1 [Example 126]
[1]; Homo sapiens
  IC50: 65 nM
[1]
  Selectivity Index CI80-13S: 9
[2]; Homo sapiens, MCF7
  IC50: 35 nM
[2]
  Selectivity Index MCF-7: 16
JAM ovarian cancer cells; Homo sapiens
  IC50: 85 nM
JAM ovarian cancer cells
  Selectivity Index JAM: 7
[3]; Homo sapiens, DU-145
  IC50: 61 nM
[3]
  Selectivity Index DU145: 9
SkMel28 melanoma cells; Homo sapiens
  IC50: 73 nM
SkMel28 melanoma cells
  Selectivity Index SK-MEL-28: 8
SK-MEL-5 cells; Homo sapiens
  IC50: 32 nM
SK-MEL-5 cells
  Selectivity Index SK-MEL-5: 18
Col208 cells
  IC50: 223 nM
  Selectivity Index Col208: 1.5
HT29 cells; Homo sapiens, HT-29
  IC50: 178 nM
HT29 cells
  Selectivity Index HT29: 3
HOP62 cells; Homo sapiens, HOP-62
  IC50: 137 nM
HOP62 cells
  Selectivity Index HOP62: 4
PC-3 cells; Homo sapiens
  IC50: 220 nM
PC-3 cells
  Selectivity Index PC-3: 3
H520 cells; Homo sapiens, NCI-H520
  IC50: 63 nM
H520 cells
  Selectivity Index H520: 9
A549 cells; Homo sapiens
  IC50: 148 nM
A549 cells
  Selectivity Index A549: 4
T-47D cells; Homo sapiens, T47D
  IC50: 45 nM
T-47D cells
  Selectivity Index T-47D: 13
MM96L melanoma cells; [6]
  IC50: 20 ± 10 nM
MM96L melanoma cells; [7]
  IC50: 51 nM
MM96L melanoma cells; [8]
  IC50: ≤ 500 nM
MM96L melanoma cells
  SI (Selectivity Index = IC50 (NFF)/IC50 (MM96L)): 28
  Selectivity Index MM96L: 11
[4]
  IC50: 0.57 ± 0.07 µM

## O=C(CCCCC[C@H](NC(=O)c1cc2ccccc2[nH]1)C(=O)Nc1cccc2cccnc12)NO [Example 132]
[1]; Homo sapiens
  IC50: 20 nM
[1]
  Selectivity Index CI80-13S: 17
[2]; Homo sapiens, MCF7
  IC50: 19 nM
[2]
  Selectivity Index MCF-7: 18
JAM ovarian cancer cells; Homo sapiens
  IC50: 48 nM
JAM ovarian cancer cells
  Selectivity Index JAM: 7
[3]; Homo sapiens, DU-145
  IC50: 22 nM
[3]
  Selectivity Index DU145: 15
SkMel28 melanoma cells; Homo sapiens
  IC50: 33 nM
SkMel28 melanoma cells
  Selectivity Index SK-MEL-28: 10
SK-MEL-5 cells; Homo sapiens
  IC50: 18 nM
SK-MEL-5 cells
  Selectivity Index SK-MEL-5: 18
Col208 cells
  IC50: 102 nM
  Selectivity Index Col208: 3
HT29 cells; Homo sapiens, HT-29
  IC50: 79 nM
HT29 cells
  Selectivity Index HT29: 4
HOP62 cells; Homo sapiens, HOP-62
  IC50: 63 nM
HOP62 cells
  Selectivity Index HOP62: 5
PC-3 cells; Homo sapiens
  IC50: 148 nM
PC-3 cells
  Selectivity Index PC-3: 2
H520 cells; Homo sapiens, NCI-H520
  IC50: 26 nM
H520 cells
  Selectivity Index H520: 13
A549 cells; Homo sapiens
  IC50: 69 nM
A549 cells
  Selectivity Index A549: 5
T-47D cells; Homo sapiens, T47D
  IC50: 19 nM
T-47D cells
  Selectivity Index T-47D: 18
MM96L melanoma cells; [6]
  IC50: 21 nM
MM96L melanoma cells; [7]
  IC50: 18 nM
MM96L melanoma cells; [8]
  IC50: ≤ 500 nM
MM96L melanoma cells
  SI (Selectivity Index = IC50 (NFF)/IC50 (MM96L)): 16
  Selectivity Index MM96L: 19
[4]
  IC50: 0.337 µM
